Structures are written as SMILES. Counter-ions that a name gives are not always drawn. Some results are limits rather than exact numbers.

The target of the test is T1, CCXCKR2 receptor (Homo sapiens, UniProt P25106).
T1 construct: The compounds were combined with mammary gland cells expressing the CCXCKR2 receptor in the presence of the ^125I-labeled chemokine; host or cells: MCF-7 (endogenous receptor) and/or MDA-MB-435S stably transfected with pcDNA3.1(+)-hRDC1
T1 sequence (P25106 whole entry): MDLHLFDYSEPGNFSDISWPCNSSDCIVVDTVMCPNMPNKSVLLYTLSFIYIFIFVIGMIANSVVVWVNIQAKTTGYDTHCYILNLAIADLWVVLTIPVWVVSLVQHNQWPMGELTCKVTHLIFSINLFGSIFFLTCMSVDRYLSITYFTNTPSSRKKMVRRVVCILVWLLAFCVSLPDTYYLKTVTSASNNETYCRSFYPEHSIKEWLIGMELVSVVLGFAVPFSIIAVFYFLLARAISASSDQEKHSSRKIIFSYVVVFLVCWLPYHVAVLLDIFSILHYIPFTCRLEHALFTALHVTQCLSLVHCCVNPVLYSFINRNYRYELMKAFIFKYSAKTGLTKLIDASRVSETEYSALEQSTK
Put plainly: Displacement of 125I-labeled SDF-1 from the CCXCKR2 receptor (radioligand binding, determination of IC50 values). Conditions: concentration displacing at least 50% of 125I SDF-1 from CCXCKR2; MCF-7 and/or CCXCKR2 transfected MDA-MB-435S cells; 3 hr at 4° C. Here is the method:
The ability of the compounds to displace the labeled chemokine from the CCXCKR2 receptor sites at multiple concentrations was then determined with the screening process.
Compounds that were deemed effective modulators were able to displace at least 50% of the SDF-1 from the CCXCKR2 receptor at concentrations at or below 2.1 micromolar (μM), as represented by the notation (+) for certain exemplary compounds shown in Table B below, and more preferably at concentrations at or below 700 nanomolar (nM) (++). At present, especially preferred compounds can displace at least 50% of the SDF-1 from the CCXCKR2 receptor at concentrations at or below 500 nM (+++). As stated above, Exemplary compounds that met these criteria are reproduced in Table B below. All compounds were prepared as described in the Examples above, or by related methods substituting readily available starting materials.
Reagents and Cells. ^125I-labeled SDF-1 was purchased from Perkin-Elmer Life Sciences, Inc. (Boston, Mass.). The MCF-7 (adenocarcinoma; mammary gland) cell line was obtained from the American Type Culture Collection (Manassas, Va.) or and was cultured in DMEM (Mediatech, Herndon, Va.) supplemented with 10% fetal bovine serum (FBS) (HyClone Logan, Utah) and bovine insulin (0.01 mg/mL) (Sigma, St. Louis, Mo.) at 37° C. in a humidified incubator at a 5% CO2/air mixture. CCXCKR2 transfected MDA-MB-435S were produced as described below. MDA-MB-435S human breast cancer line, was purchased from ATCC, and cultured in DMEM/10% FBS medium. The complete coding sequence of the gene encoding CCXCKR2 (a.k.a.CXCR^7, hRDC1), was isolated from MCF-7 cells using μMACs mRNA isolation kit (Miltenyi Biotec, Auburn, Calif.). DNA contamination was removed by DNase digestion via RNeasy columns (Qiagen, Inc., Valencia, Calif.) and cDNA was generated using GeneAmp RNA PCR Core Kit (Applied Biosystems, Foster City, Calif.). PCR of cDNA samples was performed using Taq PCR Master Mix kit (Qiagen, Inc.) and hRDC1 primers harboring 5′ and 3′ Not I sites
Binding Analysis. Target compounds were tested to determine their ability to bind with CCXCKR2 sites on MCF-7 and/or MDA-MB-435S cells. Efficiency-maximized radioligand binding using filtration protocols as described in Dairaghi D J, et al., HHV8-encoded vMIP-I selectively engages chemokine receptor CCR5. Agonist and antagonist profiles of viral chemokines., J. Biol. Chem. 1999 Jul. 30; 274(31): 21569-74 and Gosling J, et al., Cutting edge: identification of a novel chemokine receptor that binds dendritic cell- and T cell-active chemokines including ELC, SLC, and TECK., J. Immunol. 2000 Mar. 15; 164(6):2851-6 was used.
In these assays, MCF-7 and/or MDA-MB-435S cells were interrogated with the target compounds and the ability of these compounds to displace ^125I radiolabeled SDF-1 was assessed using the protocol described in Dairaghi and Gosling. The target compounds were added to the plate to the indicated concentration and were then incubated with cells followed by the addition of radiolabeled chemokine (^125I SDF-1) for 3 hr at 4° C. in the following binding medium (25 mM HEPES, 140 mM NaCl, 1 mM CaCl2, 5 mM MgCl2 and 0.2% bovine serum albumin, adjusted to pH 7.1). All assays were then incubated for 3 hrs at 4° C. with gentle agitation. Following incubation in all binding assays, reactions were aspirated onto PEI-treated GF/B glass filters (Packard) using a cell harvester (Packard) and washed twice (25 mM HEPES, 500 mM NaCl, 1 mM CaCl2, 5 mM MgCl2, adjusted to pH 7.1). Scintillant (MicroScint 10, Packard) was added to the wells, and the filters were counted in a Packard Topcount scintillation counter. Data were analyzed and plotted using Prism (GraphPad Prism version 3.0a for Macintosh, GraphPad Software, www.graphpad.com).
(In a radioligand displacement assay an active substance lowers the binding of a labelled ligand.)
One may read the IC50 as the concentration needed to halve the response being measured. The low end stands for inhibition by little substance, the high end for a need for much substance. With `COc1cc(C(=O)N(C/C(C)=C/c2ccc(F)cc2F)CC2CCCN2CC2(NS(C)(=O)=O)CCCC2)ccc1OC(F)F` (stereo not drawn) [Compound 17], the IC50 was ≤ 500 nM.

Turning to `COc1ccc(C(=O)N(C/C(C)=C/c2ccc(F)cc2F)C[C@@H]2CCCN2C[C@H]2CC[C@@H](N)CC2)cc1OC` [Compound 13, N-[1-(4-amino-cyclohexylmethyl)-pyrrolidin-2-ylmethyl]-N-[3-(2,4-difluoro-phenyl)-2-methyl-allyl]-3,4-dimethoxy-benzamide], the IC50 is ≤ 500 nM.

On to `COc1ccc(C(=O)N(C/C(C)=C/c2ccc(F)cc2F)C[C@@H]2CCCN2C[C@H]2CC[C@H](NS(C)(=O)=O)CC2)cc1OC` [Compound 9, N-(S)-[(E)-3-(2,4-Difluoro-phenyl)-2-methyl-allyl]-N-[(S)-1-(4-methanesulfonylamino-cyclohexylmethyl)-pyrrolidin-2-ylmethyl]-3,4-dimethoxy-benzamide], for which the IC50 is ≤ 500 nM. `COc1cc(C(=O)N(C/C(C)=C/c2ccc(F)cc2F)Cc2nccn2C)ccc1OC(F)F` [Compound 18, 4-difluoromethoxy-N-[3-(2,4-difluoro-phenyl)-2-methyl-allyl]-3-methoxy-N-(1-methyl-1H-imidazol-2-ylmethyl)-benzamide]: the IC50 was ≤ 2100 nM. Take `COc1cc(C(=O)N(C/C(C)=C/c2ccc(F)cc2F)CC2CCCN2CC2(N)CCCC2)ccc1OC(F)F` (stereo not drawn) [Compound 16, N-[1-(1-Amino-cyclopentylmethyl)-pyrrolidin-2ylmethyl]-4-difluoromethoxy-N-[3-(2,4-difluoro-phenyl)-2-methyl-allyl]-3-methoxy-benzamide]: the IC50 is ≤ 700 nM. For `COc1cc(C(=O)N(C/C(C)=C/c2ccc(F)cc2F)C[C@@H]2C[C@@H]3CCCC[C@@H]3N2)ccc1OC(F)F` [Compound 3, 4-Difluoromethoxy-N-[(E)-3-(2,4-difluoro-phenyl)-2-methyl-allyl]-3-methoxy-N-[(2S,3aS,7aS)-1-(octahydro-indol-2-yl)methyl]-benzamide], the IC50 is ≤ 500 nM.

For `COc1ccc(C(=O)N(C/C(C)=C/c2ccc(F)cc2F)CC2CCC3COCCN32)cc1OC` (stereo not drawn) [Compound 20], the IC50 was ≤ 2100 nM. Consider `COc1cc(C(=O)N(C/C(C)=C/c2ccccc2)CC2CCCN2C[C@H]2CC[C@@H](NC(C)C)CC2)cc2c1OC(C)(C)O2` (stereo partly drawn) [Compound 6, Methoxy-2,2-dimethyl-benzo[1,3]dioxole-5-carboxylic acid [(S)-1-(4-isopropylamino-cyclohexylmethyl)-pyrrolidin-2-ylmethyl]-((E)-2-methyl-3-phenyl-allyl)-amide], for which the IC50 was ≤ 500 nM. With `COc1cc(C(=O)N(C/C(C)=C/c2ccc(F)cc2F)C[C@@H]2C[C@@H]3CCCC[C@@H]3N2)cc2c1OC(C)(C)O2` [Compound 4, 7-Methoxy-2,2-dimethyl-benzo[1,3]dioxole-5-carboxylic acid [(E)-3-(2,4-difluoro-phenyl)-2-methyl-allyl]-[(2S,3aS,7aS)-1-(octahydro-indol-2-yl)methyl]-amide], the IC50 is ≤ 500 nM. The result for `COc1ccc(C(=O)N(C/C(C)=C/c2ccc(F)cc2F)C[C@@H]2C[C@@H]3CCCC[C@@H]3N2)cc1OC` [Compound 5, N-[(E)-3-(2,4-Difluoro-phenyl)-2-methyl-allyl]-3,4-dimethoxy-N-[(2S,3aS,7aS)-1-(octahydro-indol-2-yl)methyl]-benzamide] reads ≤ 500 nM; that for `COc1ccc(C(=O)N(CC2=NCCN2)C/C(C)=C/c2ccc(F)cc2F)cc1OC` [Compound 19, N-[(E)-3-(2,4-Difluoro-phenyl)-2-methyl-allyl]-N-(4,5-dihydro-1 H-imidazol-2-ylmethyl)-3,4-dimethoxy-benzamide hydrochloride], ≤ 500 nM.

For `COc1cc(C(=O)N(C/C(C)=C/c2ccc(F)cc2F)C[C@@H]2CCCN2CC2(N(C)C)CCCC2)ccc1OC(F)F` (stereo in doubt) [Compound 15, 4-Difluoromethoxy-N-[3-(2,4-difluoro-phenyl)-2-methyl-allyl]-N-[1-(1-dimethylamino-cyclopentylmethyl)-pyrrolidin-2-ylmethyl]-3-methoxy-benzamide], the IC50 is ≤ 500 nM. The result for `COc1cc(C(=O)N(C/C(C)=C/c2ccc(F)cc2F)C[C@@H]2CCCN2C[C@H]2CC[C@@H](NS(C)(=O)=O)CC2)ccc1OC(F)F` [Compound 11] reads ≤ 500 nM; that for `COc1cc(C(=O)N(C/C(C)=C/c2ccccc2)C[C@@H]2C[C@@H]3CCCC[C@@H]3N2)cc2c1OC(C)(C)O2` [Compound 1, 7-Methoxy-2,2-dimethyl-benzo[1,3]dioxole-5-carboxylic acid (2-methyl-3-phenyl-allyl)-[(2S,6S,7S)-1-(octahydro-indol-2-yl)methyl]-amide], ≤ 500 nM; that for `COc1ccc(C(=O)N(C/C(C)=C/c2ccc(F)cc2F)C[C@@H]2CCCN2CC2CCC(N)CC2)cc1OC` (stereo partly drawn) [Compound 10, N-[(S)-1-(4-Amino-cyclohexylmethyl)-pyrrolidin-2-ylmethyl]-N-[(E)-3-(2,4-difluoro-phenyl)-2-methyl-allyl]-3,4-dimethoxy-benzamide], ≤ 500 nM. With `COc1cc(C(=O)N(C/C(C)=C/c2ccccc2)C[C@@H]2C[C@@H]3CCC[C@@H]3N2)cc2c1OC(C)(C)O2` [Compound 2, 7-Methoxy-2,2-dimethyl-benzo[1,3]dioxole-5-carboxylic acid (2-methyl-3-phenyl-allyl)-[(2S,5S,6S)-1-(octahydro-cyclopenta[b]pyrrol-2-yl)methyl]-amide], the IC50 was ≤ 500 nM. The same measure for `COc1cc(C(=O)N(C/C(C)=C/c2ccc(F)cc2F)C[C@H]2CCCN2C[C@H]2CC[C@@H](N)CC2)ccc1OC(F)F` [Compound 14]: ≤ 500 nM; for `COc1ccc(C(=O)N(C/C(C)=C/c2ccc(F)cc2F)C[C@@H]2CCCN2C[C@H]2CC[C@@H](N)C2)cc1OC` [Compound 7, N-[(S)-1-((1S,3R)-3-Amino-cyclopentylmethyl)-pyrrolidin-2-ylmethyl]-N-[(E)-3-(2,4-difluoro-phenyl)-2-methyl-allyl]-3,4-dimethoxy-benzamide]: ≤ 500 nM.

For the origin of these results see patent US20070021484A1, “Substituted N-cinnamyl benzamides” (ChemoCentryx, Inc., priority 2005, published 2007).
